From patent US10029989B2, “Imidazole derivatives” (Hoffmann-La Roche Inc., priority 2015, dated 2018) come the findings set out here.

Series [1] addresses T1, human EAAT3 (Homo sapiens, UniProt P43005).
T1 construct: expressed in transfected cells
T1 sequence (P43005 1-524): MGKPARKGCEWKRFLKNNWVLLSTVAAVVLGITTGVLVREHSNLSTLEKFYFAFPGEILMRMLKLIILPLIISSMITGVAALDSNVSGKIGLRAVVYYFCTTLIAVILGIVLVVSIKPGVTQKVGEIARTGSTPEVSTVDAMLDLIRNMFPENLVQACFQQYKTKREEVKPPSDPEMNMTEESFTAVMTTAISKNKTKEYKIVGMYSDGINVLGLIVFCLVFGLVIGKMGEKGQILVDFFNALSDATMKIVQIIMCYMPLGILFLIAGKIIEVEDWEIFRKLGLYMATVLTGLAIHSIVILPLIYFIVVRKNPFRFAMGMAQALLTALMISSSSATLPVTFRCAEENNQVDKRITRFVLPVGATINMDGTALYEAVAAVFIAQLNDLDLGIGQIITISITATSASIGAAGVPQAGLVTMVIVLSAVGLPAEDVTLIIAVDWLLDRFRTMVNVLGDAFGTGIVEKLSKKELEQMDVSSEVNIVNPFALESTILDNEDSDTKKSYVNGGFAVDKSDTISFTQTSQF
The series can be described thus: FLIPR Membrane Potential (FMP) assay, antagonist potency at human EAAT3. The following applies: HEK-293 cells stably expressing human EAAT3; L-glutamate as agonist at EC80; antagonist applied 15 min before agonist; Kb by Cheng-Prusoff from IC50. It counts as cell-based. The protocol:
The FLIPR Membrane Potential (FMP) Assay
HEK-293 cells stably expressing human EAAT3 were seeded at 55 000 cells/well in growth medium (DMEM glutamate free (Invitrogen 11960-044), 1% Pen Strep (10 ml/1 GIBCO BRL N°15140-023), 10% FCS non dialysed heat inactivated, 5 mg/l puromycin) in poly-D-lysine treated 96-well black microtiter plates with clear-bottom. After 24 h, the growth medium was removed and 100 μl/well of Krebs buffer (140 mM NaCl, 4.7 mM KCl, 2.5 mM CaCl2, 1.2 mM MgCl2, 11 mM HEPES, 10 mM D-glucose, pH=7.4) added. The cells were then loaded by adding 100 μl/well FMP assay dye (FLIPR Membrane Potential assay reagent, Molecular Devices). The 96-well plates were then incubated at 37° C. for 1 h. The depolarization of the cells will cause more dye to enter in the cells, where it will bind to intracellular proteins and lipids and cause an increase in the fluorescence signal. Antagonist potency at human EAAT3 was determined by using L-glutamate as agonist at a concentration which gives 80% of the maximum response. The antagonists were applied 15 min before the application of the agonist L-glutamate. The assays were performed at room temperature and measurements done by using a Fluorometric Imaging Plate Reader (FLIPR, Molecular Devices) and filter #2. Responses were measured as peak increase in fluorescence minus basal (i.e. fluorescence without addition of L-glutamate). Kb was determined using the Cheng-Prusoff equation Kb=IC50/[1+(A/EC50)], where IC50 is the concentration of the antagonist producing 50% inhibition, A is the concentration of the agonist against which the IC50 is being determined (at EC80) and EC50 is the concentration of the agonist producing 50% […].

Each structure is given as a SMILES string.

One may read the Kb as the equilibrium dissociation constant of an antagonist, usually derived from a functional assay. Read a low Kb as higher antagonist affinity. In general, melting point refers to the temperature of the solid-liquid transition. In turn, `Cc1ccc(-c2cc(C(=O)NC(C)(C)C)cc(-n3ccnc3C(C)C)c2)cc1F` [Example 22, N-tert-Butyl-3-(3-fluoro-4-methylphenyl)-5-(2-propan-2-ylimidazol-1-yl)-benzamide] yielded a melting point of 98 °C. The molecule further displayed a Kb in series [1] of 120 nM. For `CC(C)c1nccn1-c1cc(C(=O)NC(C)(C)C)cc(-c2ccc(Cl)c(F)c2)c1` [Example 24, N-tert-Butyl-3-(4-chloro-3-fluorophenyl)-5-(2-propan-2-ylimidazol-1-yl)-benzamide] the same measures were 98 °C and 190 nM. The matching figures for `CC(C)(NC(=O)c1cc(-c2ccc(Cl)cc2)cc(-n2ccnc2C2CC2)c1)C(F)(F)F` [Example 15, 3-(4-Chlorophenyl)-5-(2-cyclopropylimidazol-1-yl)-N-(1,1,1-trifluoro-2-methylpropan-2-yl)-benzamide]: 101.5 °C and 150 nM.

`Cc1nccn1-c1cc(C(=O)NC(C)(C)C)cc(-c2ccc(Cl)cc2)c1` [Example 3, N-tert-Butyl-3-(4-chlorophenyl)-5-(2-methylimidazol-1-yl)-benzamide]: the melting point is 220 °C. The molecule further had a Kb in series [1] of 190 nM. The matching figures for `CC(C)c1nccn1-c1cc(C(=O)NC(C)(C)C(F)(F)F)cc(-c2ccc(Cl)cc2)c1` [Example 7, 3-(4-Chlorophenyl)-5-(2-propan-2-ylimidazol-1-yl)-N-(1,1,1-trifluoro-2-methylpropan-2-yl)-benzamide]: 115.5 °C and 200 nM. `CC(C)(C)NC(=O)c1cc(-c2ccc(Cl)cc2)cc(-n2ccnc2C(C)(C)C)c1` [Example 28, N-tert-Butyl-3-(2-tert-butylimidazol-1-yl)-5-(4-chlorophenyl)-benzamide]: the melting point was found to be 101 °C. In series [1], this molecule came in with a Kb of 160 nM. As for `CC(C)c1nccn1-c1cc(C(=O)NC(C)(C)C)cc(-c2ccc(C(F)(F)F)cc2)c1` [Example 21, N-tert-Butyl-3-(2-propan-2-ylimidazol-1-yl)-5-[4-(trifluoromethyl)-phenyl]-benzamide], the melting point stood at 96.5 °C. In series [1], this molecule returned a Kb of 180 nM. In turn, `CC(C)(C)NC(=O)c1cc(-c2ccc(Cl)cc2)cc(-n2ccnc2)c1` [Example 2, N-tert-Butyl-3-(4-chlorophenyl)-5-imidazol-1-ylbenzamide] yielded an antagonist dissociation constant (Kb) in series [1] of 230 nM. Regarding `CC(C)c1nccn1-c1cc(C(=O)NC(C)(C)C)cc(-c2ccc(C3CC3)cc2)c1` [Example 25, N-tert-Butyl-3-(4-cyclopropylphenyl)-5-(2-propan-2-ylimidazol-1-yl)-benzamide], the melting point came to 95 °C. Further, in series [1], the Kb came to 210 nM. Take `CC(C)(C)NC(=O)c1cc(-c2ccc(Cl)cc2)cc(-n2ccnc2C(C)(C)O)c1` [Example 40, N-tert-Butyl-3-(4-chlorophenyl)-5-[2-(2-hydroxypropan-2-yl)-imidazol-1-yl]-benzamide]: the melting point was found to be 78 °C. In series [1], this molecule came in with a Kb of 70 nM. `CC(C)c1nccn1-c1cc(C(=O)NC(C)(C)C)cc(-c2ccc(F)c(F)c2)c1` [Example 23, N-tert-Butyl-3-(3,4-difluorophenyl)-5-(2-propan-2-ylimidazol-1-yl)-benzamide] came in with a melting point of 91.5 °C. The molecule also gave a Kb in series [1] of 150 nM. For `CC(C)c1nccn1-c1cc(C(=O)NC(C)(C)C2CC2)cc(-c2ccc(Cl)cc2)c1` [Example 8, 3-(4-Chlorophenyl)-N-(2-cyclopropylpropan-2-yl)-5-(2-propan-2-ylimidazol-1-yl)-benzamide] the same measures were 189 °C and 230 nM. The matching figures for `CC(C)(C)NC(=O)c1cc(-c2ccc(F)cc2)cc(-n2ccnc2C(C)(C)O)c1` [Example 34, N-tert-Butyl-3-(4-fluorophenyl)-5-[2-(2-hydroxypropan-2-yl)-imidazol-1-yl]-benzamide]: 183 °C and 100 nM. For `CC1(NC(=O)c2cc(-c3ccc(Cl)cc3)cc(-n3ccnc3C3CC3)c2)CCS(=O)(=O)C1` (racemic) [Example 39, (RS)-3-(4-chlorophenyl)-5-(2-cyclopropylimidazol-1-yl)-N-(3-methyl-1,1-dioxothiolan-3-yl)-benzamide] the same measures were 115 °C and 180 nM. `CC(C)(C)NC(=O)c1cc(-c2ccc(F)cc2)cc(-n2ccnc2C(C)(C)C)c1` [Example 32, N-tert-Butyl-3-(2-tert-butylimidazol-1-yl)-5-(4-fluorophenyl)-benzamide]: the melting point is 218 °C. In series [1], this molecule yielded a Kb of 180 nM. The molecule `CC(C)(C)NC(=O)c1cc(-c2ccc(Cl)cc2)cc(-n2ccnc2C2CC2)c1` [Example 5, N-tert-Butyl-3-(4-chlorophenyl)-5-(2-cyclopropylimidazol-1-yl)-benzamide] registered a Kb in series [1] of 120 nM. `CC(C)(C)NC(=O)c1cc(-c2ccc(C(F)(F)F)cc2)cc(-n2ccnc2C(C)(C)O)c1` [Example 35, N-tert-Butyl-3-[2-(2-hydroxypropan-2-yl)-imidazol-1-yl]-5-[4-(trifluoromethyl)-phenyl]-benzamide] yielded a melting point of 173.5 °C. This molecule also gave a Kb in series [1] of 210 nM. For `Cc1nccn1-c1cc(C(=O)NC(C)(C)C(F)(F)F)cc(-c2ccc(Cl)cc2)c1` [Example 14, 3-(4-Chlorophenyl)-5-(2-methylimidazol-1-yl)-N-(1,1,1-trifluoro-2-methylpropan-2-yl)-benzamide] the same measures were 199.5 °C and 130 nM.

As to `CCC(C)(C)NC(=O)c1cc(-c2ccc(Cl)cc2)cc(-n2ccnc2CO)c1` [Example 30, 3-(4-Chlorophenyl)-5-[2-(hydroxymethyl)-imidazol-1-yl]-N-(2-methylbutan-2-yl)-benzamide], the melting point was 76 °C. Moreover, the Kb in series [1] came to 160 nM. For the molecule `Cc1nccn1-c1cc(C(=O)NC(C)(C)C2CC2)cc(-c2ccc(Cl)cc2)c1` [Example 11, 3-(4-Chlorophenyl)-N-(2-cyclopropylpropan-2-yl)-5-(2-methylimidazol-1-yl)-benzamide], the melting point turned out to be 180 °C. This molecule yielded a Kb in series [1] of 170 nM. For `CC(C)(C)NC(=O)c1cc(-c2ccc(Cl)cc2)cc(-n2ccnc2CO)c1` [Example 29, N-tert-Butyl-3-(4-chlorophenyl)-5-[2-(hydroxymethyl)-imidazol-1-yl]-benzamide] the same measures were 114 °C and 150 nM. For `CC(C)(NC(=O)c1cc(-c2ccc(F)cc2)cc(-n2ccnc2C2CC2)c1)C1CC1` [Example 20, 3-(2-Cyclopropylimidazol-1-yl)-N-(2-cyclopropylpropan-2-yl)-5-(4-fluorophenyl)-benzamide] the same measures were 83 °C and 33 nM. Consider `CC(C)c1nccn1-c1cc(C(=O)NC(C)(C)CO)cc(-c2ccc(Cl)cc2)c1` [Example 41, 3-(4-Chlorophenyl)-N-(1-hydroxy-2-methylpropan-2-yl)-5-(2-propan-2-yl-imidazol-1-yl)-benzamide], for which the melting point came out at 97 °C. The antagonist equilibrium constant (Kb) in series [1] amounted to 540 nM. Take `CCC(C)(C)NC(=O)c1cc(-c2ccc(Cl)cc2)cc(-n2ccnc2C(C)(C)C)c1` [Example 31, 3-(2-tert-Butylimidazol-1-yl)-5-(4-chlorophenyl)-N-(2-methylbutan-2-yl)-benzamide]: the melting point came out at 189.5 °C. In series [1], the antagonist equilibrium constant (Kb) worked out at 410 nM. Molecule `CC(C)c1nccn1-c1cc(C(=O)NC(C)(C)C)cc(-c2ccc(Cl)cc2)c1` [Example 1, N-tert-Butyl-3-(4-chlorophenyl)-5-(2-propan-2-ylimidazol-1-yl)-benzamide] displayed a Kb in series [1] of 180 nM. On the same count and under the same terms, in the case of `CCc1nccn1-c1cc(C(=O)NC(C)(C)C)cc(-c2ccc(Cl)cc2)c1` [Example 4, N-tert-Butyl-3-(4-chlorophenyl)-5-(2-ethylimidazol-1-yl)-benzamide] it was 180 nM.
